Experiments:
OVCAR8-GFP-Luc cells = assay: Intraperitoneal OVCAR8 xenograft in NSG mice (bioluminescence imaging, ascites, in vivo phagocytosis)
Method: Animal Experiments: All mouse studies were performed in accordance with the Guide for the Care and Use of Laboratory Animals from NIH, and a protocol (202000157) approved by the UMass Chan Medical School Institutional Animal Care and Use Committee (IACUC). Female NSG mice (n=3 per group), 6-7 weeks of age, were injected intraperitoneally with 4×10^6 OVCAR8/EmGFP-luc cells or OVCAR8-ΔGPAA1/EmGFP-luc cells. Tumors were analyzed using bioluminescence imaging beginning 7 days post-engraftment and continuing every 7 days until day 28. Mice were injected intraperitoneally with firefly D-luciferin at 140 mg/kg in PBS and images were acquired 10 min after luciferin injection using an IVIS Spectrum (Perkin Elmer). Total flux was quantified using Living Image 4.0 software (IVIS Imaging Systems).
For macrophage depletion experiments, 200 μl of clodronate liposomes (Liposoma) was administered intraperitoneally every 4 days for 16 days before tumor implantation, followed by injection of 100 μl of clodronate liposomes every 4 days. Depletion of […] was verified by flow cytometry analysis peritoneal lavage using an APC anti-mouse F4/80 antibody (BioLegend, Cat #123116, clone BM8, 1:50 dilution).
[…] Tumors were analyzed by in vivo bioluminescence imaging as described above.
In vivo Phagocytosis Assay: An in vivo phagocytosis assay was performed as described previously (Barkal et al., Nature 2019, 572(7769):392-396). Mice were implanted with 4×10^6 OVCAR8/EmGFP-luc cells as described above and 7 days later bestatin (100 mg/kg) was administered daily by intraperitoneal injection. After 10 days of bestatin treatment, peritoneal ascites was harvested. Single-cell suspensions of ascitic cells were blocked using TruStain FcX (anti-mouse CD16/32 antibody (BioLegend, Cat #101320) for 10 min at room temperature and then stained with an APC anti-mouse F4/80 antibody (BioLegend, Cat #123116, clone BM8, 1:50 dilution) for 30 min on ice in the dark. The percentage of cells undergoing phagocytosis was calculated as the percentage of F4/80+ EmGFP+ double-positive cells in the population.

OVCAR8 cells = assay: Cell viability assay (PrestoBlue) in OVCAR8 cells; type: cell-based, human; settings: OVCAR8, 5, 10 or 20 μM bestatin vs DMSO (FIG. 6F)
Method: Cell Viability Assay: OVCAR8 cells were transduced with a lentivirus expressing non-silencing (NS) or CD24 shRNA (Table 1) and analyzed for cell viability using PrestoBlue Cell Viability Reagent (Invitrogen™, Cat #A13261) as per the manufacturer's instructions, and relative cell growth was determined. […]

GPAA1 = target: T1, GPAA1 (Homo sapiens, UniProt O43292); assay: Cellular thermal stability shift assay (CETSA); type: binding; settings: OVCAR8 cells, bestatin 100 μM for 2 hours, relative to DMSO (FIG. 6B)
T1 construct: endogenous in cells; host or cells: OVCAR8 human ovarian cancer cells (Creative Biolabs, Cat #IOC-ZP305)
T1 sequence (O43292 1-621): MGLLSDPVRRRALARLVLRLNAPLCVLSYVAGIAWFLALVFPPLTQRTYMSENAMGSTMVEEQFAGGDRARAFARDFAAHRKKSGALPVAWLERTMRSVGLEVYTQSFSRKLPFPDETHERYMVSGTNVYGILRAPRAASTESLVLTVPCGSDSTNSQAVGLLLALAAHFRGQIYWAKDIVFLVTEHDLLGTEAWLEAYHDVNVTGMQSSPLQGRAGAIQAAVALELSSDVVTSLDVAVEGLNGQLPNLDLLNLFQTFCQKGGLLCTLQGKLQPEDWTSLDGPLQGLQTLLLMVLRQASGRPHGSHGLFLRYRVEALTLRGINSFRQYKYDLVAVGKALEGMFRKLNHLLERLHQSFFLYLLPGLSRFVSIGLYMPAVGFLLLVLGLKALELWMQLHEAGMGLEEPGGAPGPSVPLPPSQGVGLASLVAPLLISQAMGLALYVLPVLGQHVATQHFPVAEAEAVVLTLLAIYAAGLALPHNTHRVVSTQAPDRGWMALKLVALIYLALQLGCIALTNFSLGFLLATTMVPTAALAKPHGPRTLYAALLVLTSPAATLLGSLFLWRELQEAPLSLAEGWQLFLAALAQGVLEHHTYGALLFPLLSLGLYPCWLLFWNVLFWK
Method: CETSA: CETSA assays were performed as described previously (Jafari et al., Nat Protoc 2014, 9(9):2100-22). In brief, […] OVCAR8 cells were treated with DMSO or 100 μM bestatin for 2 hours. Cells (50 μl) were aliquoted in PCR tubes and incubated at room temperature (25° C.) or at a range of temperatures (37° C. to 65.2° C.) in a thermal cycler for 3 min and cooled to 4° C. Cells were lysed using Alpha SureFire Ultra Lysis Buffer (PerkinElmer, Cat #ASLU-LB) supplemented with Halt Protease Inhibitor Cocktail (ThermoFisher Scientific, Cat #78430). Insoluble proteins were separated by centrifugation at 15000×g for 30 mins at 4° C. Equal volumes of each sample were separated by SDS-PAGE and detected by immunoblotting blotting using an anti-GPAA1 polyclonal antibody (Invitrogen, Cat #PA5-100548). Three independent experiments were performed. Densitometry of the blots was performed using ImageJ software and the graph was plotted using GraphPad Prism 9.0.
Due to the predicted structural similarity between GPAA1 and M28-type metallopeptidases, we hypothesized that GPAA1 may be inhibited by bestatin and carried out a series of experiments to test this possibility. […] The ligand-bound proteins in the soluble fraction are analyzed by immunoblotting to quantify the changes in thermal stability.

Which “tumor growth (total flux, in vivo bioluminescence imaging)” value (OVCAR8-GFP-Luc cells; NSG mice, IP OVCAR8-GFP-Luc, bestatin 100 mg/kg/d IP vs vehicle (FIG. 10C)) does the source give for `CC(C)C[C@H](NC(=O)[C@@H](O)[C@H](N)Cc1ccccc1)C(=O)O` [bestatin] here?
Its value is “significantly reduced”.

What about the “GFP+F4/80+ double-positive cells in ascites (in vivo phagocytosis)” value (OVCAR8-GFP-Luc cells; bestatin 100 mg/kg daily IP, 10 days, vs vehicle (FIG. 10E)) of the same compound?
Its value is “increase”.

And the ascites volume (OVCAR8-GFP-Luc cells; bestatin 100 mg/kg/d IP, 10 days of treatment, vs vehicle (FIG. 10D))?
The ascites volume was “significantly reduced”.

And the cell viability (OVCAR8 cells)?
The cell viability was “no effect”.

What about the “thermal stability of GPAA1” value (GPAA1) of the same compound?
Its value is “increased”.
